Like-named read-outs stand apart in the source and are kept apart here.
Assays:
[1] = biological target: T1, rat brain N-type calcium channel subunits (α1B+α2δ+β1b cDNA subunits) (Rattus norvegicus, UniProt Q02294); assay: N-type calcium channel block, whole cell patch clamp in HEK 293 cells; type: cell-based; settings: holding potential −80 mV to +10 mV, 5 mM BaCl2
T1 construct: expressed in transfected cells; host or cells: HEK 293
Excerpt: Normalized dose-response curves were fit (Sigmaplot 4.0, SPSS Inc., Chicago, Ill.) by the Hill equation to determine IC50 values. Steady-state inactivation curves were plotted as the normalized test pulse amplitude following 5 s inactivating prepulses at +10 mV increments. Inactivation curves were fit (Sigmaplot 4.0) with the Boltzman equation, Ipeak (normalized)=1/(1+exp((V-Vh)z/25.6)), where V and Vh are the conditioning and half inactivation potentials, respectively, and z is the slope factor.
The methods of Example 11 were followed with slight modifications as will be apparent from the description below.
N-type calcium channel blocking activity was assayed in human embryonic kidney cells, HEK 293, stably transfected with the rat brain N-type calcium channel subunits (α1B+α2δ+β1b cDNA subunits). Briefly, cells were cultured in Dulbecco's modified eagle medium (DMEM) supplemented with 10% fetal bovine serum, 200 U/ml penicillin and 0.2 mg/ml streptomycin at 37° C. with 5% CO2. At 85% confluency, cells were split with 0.25% trypsin/1 mM EDTA and plated at 10% confluency on glass coverslips. At 12 hours the medium was. replaced and the cells transfected using a standard calcium phosphate protocol and the appropriate calcium channel cDNAs. Fresh DMEM was supplied and the cells transferred to 28° C./5% CO2. Cells were incubated for 1 to 2 days to whole cell recording.
Whole cell patch clamp experiments were performed using an Axopatch 200B amplifier (Axon Instruments, Burlingame, Calif.) linked to a personal computer equipped with pCLAMP software. The external and internal recording solutions contained, respectively, 5 mM BaCl2, 10 mM MgCl2, 10 mM HEPES, 40 mM TEACl, 10 mM glucose, 87.5 mM CsCl (pH 7.2) and 108 mM CsMS, 4 mM MgCl2, 9 mM EGTA, 9 mM HEPES (pH 7.2). Currents were typically elicited from a holding potential of −80 mV to +10 mV using Clampex software (Axon Instruments). Typically, currents were first elicited with low frequency stimulation (0.067 Hz) and allowed to stabilize prior to application of the compounds. The compounds were then applied during the low frequency pulse trains for two to three minutes to assess tonic block, and subsequently the pulse frequency was increased to 0.2 Hz to assess frequency dependent block. Data were analyzed using Clampfit (Axon Instruments) and SigmaPlot 4.0 (Jandel Scientific).

[2] = biological target: T2, human α1G T-type channels (Homo sapiens, UniProt O43497); assay: Block of α1G T-type channels, whole-cell patch clamp in HEK cells; type: cell-based; settings: test pulse −40 mV
T2 construct: expressed in transfected cells
T2 sequence (O43497 whole entry): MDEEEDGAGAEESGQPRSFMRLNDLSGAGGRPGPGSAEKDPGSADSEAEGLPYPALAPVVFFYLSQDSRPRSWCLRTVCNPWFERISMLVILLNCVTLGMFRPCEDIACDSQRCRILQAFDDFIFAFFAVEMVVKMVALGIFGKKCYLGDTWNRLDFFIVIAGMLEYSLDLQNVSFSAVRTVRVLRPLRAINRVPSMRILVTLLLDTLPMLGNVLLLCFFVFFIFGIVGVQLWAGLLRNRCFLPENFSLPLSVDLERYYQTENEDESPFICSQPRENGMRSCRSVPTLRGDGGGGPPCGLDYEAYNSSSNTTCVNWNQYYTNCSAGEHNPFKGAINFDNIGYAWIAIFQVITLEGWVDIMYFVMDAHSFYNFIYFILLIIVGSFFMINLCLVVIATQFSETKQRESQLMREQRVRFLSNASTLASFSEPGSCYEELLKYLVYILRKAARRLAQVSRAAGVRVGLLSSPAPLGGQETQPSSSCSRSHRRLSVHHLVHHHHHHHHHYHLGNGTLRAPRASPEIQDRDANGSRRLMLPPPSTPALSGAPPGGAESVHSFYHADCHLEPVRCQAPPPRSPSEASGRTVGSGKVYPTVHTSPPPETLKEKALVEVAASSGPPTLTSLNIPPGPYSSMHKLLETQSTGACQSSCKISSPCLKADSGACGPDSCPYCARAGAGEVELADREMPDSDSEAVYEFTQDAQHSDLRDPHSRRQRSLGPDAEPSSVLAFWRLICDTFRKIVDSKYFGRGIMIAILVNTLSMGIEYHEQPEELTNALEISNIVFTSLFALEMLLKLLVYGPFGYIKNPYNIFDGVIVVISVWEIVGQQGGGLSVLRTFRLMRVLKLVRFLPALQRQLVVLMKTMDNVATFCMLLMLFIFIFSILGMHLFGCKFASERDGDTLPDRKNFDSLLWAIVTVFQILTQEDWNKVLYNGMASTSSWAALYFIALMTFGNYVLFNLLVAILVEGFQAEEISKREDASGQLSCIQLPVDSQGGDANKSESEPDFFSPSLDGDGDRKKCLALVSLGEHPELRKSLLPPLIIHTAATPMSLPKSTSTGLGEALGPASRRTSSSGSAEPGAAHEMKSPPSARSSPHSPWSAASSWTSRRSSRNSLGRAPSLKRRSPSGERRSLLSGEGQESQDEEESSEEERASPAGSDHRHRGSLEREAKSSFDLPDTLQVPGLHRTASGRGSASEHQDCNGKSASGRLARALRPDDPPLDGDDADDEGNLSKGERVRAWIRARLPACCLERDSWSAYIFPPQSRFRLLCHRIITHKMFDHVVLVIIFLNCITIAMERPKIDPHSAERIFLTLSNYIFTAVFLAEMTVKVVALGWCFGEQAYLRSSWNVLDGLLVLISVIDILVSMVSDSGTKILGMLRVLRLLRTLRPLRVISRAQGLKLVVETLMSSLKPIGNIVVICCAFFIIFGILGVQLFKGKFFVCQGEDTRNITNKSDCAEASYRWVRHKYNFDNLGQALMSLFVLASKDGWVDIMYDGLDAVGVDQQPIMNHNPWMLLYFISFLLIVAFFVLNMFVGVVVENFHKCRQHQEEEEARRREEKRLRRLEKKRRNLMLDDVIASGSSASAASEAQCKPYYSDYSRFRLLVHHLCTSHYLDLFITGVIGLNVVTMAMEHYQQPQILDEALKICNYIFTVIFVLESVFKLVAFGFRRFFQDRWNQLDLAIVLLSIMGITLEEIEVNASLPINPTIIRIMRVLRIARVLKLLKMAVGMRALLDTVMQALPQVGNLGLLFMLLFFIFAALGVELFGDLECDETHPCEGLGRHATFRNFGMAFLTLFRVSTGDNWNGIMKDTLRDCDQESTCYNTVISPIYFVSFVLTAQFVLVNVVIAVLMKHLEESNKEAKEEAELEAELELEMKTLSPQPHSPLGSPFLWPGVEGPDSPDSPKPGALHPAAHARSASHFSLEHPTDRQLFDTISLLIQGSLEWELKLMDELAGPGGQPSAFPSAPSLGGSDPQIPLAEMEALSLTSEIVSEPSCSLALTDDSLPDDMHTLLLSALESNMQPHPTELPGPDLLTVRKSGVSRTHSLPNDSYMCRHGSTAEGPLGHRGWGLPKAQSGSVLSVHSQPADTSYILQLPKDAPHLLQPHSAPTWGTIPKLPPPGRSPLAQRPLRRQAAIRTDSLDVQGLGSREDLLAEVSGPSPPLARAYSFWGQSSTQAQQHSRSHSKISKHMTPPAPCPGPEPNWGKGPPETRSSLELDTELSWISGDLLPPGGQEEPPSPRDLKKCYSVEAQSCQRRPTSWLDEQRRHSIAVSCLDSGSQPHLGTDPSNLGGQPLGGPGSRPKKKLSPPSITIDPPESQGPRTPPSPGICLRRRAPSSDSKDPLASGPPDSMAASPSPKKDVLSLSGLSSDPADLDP
Experimental: Standard patch-clamp techniques were employed to identify blockers of T-type currents. Briefly, previously described HEK cell lines stably expressing human α1G T-type channels were used for all the recordings (passage #: 4-20, 37° C., 5% CO2). To obtain T-type currents, plastic dishes containing semi-confluent cells were positioned on the stage of a ZEISS AXIOVERT S100 microscope after replacing the culture medium with external solution (Table 3). Whole-cell patches were obtained using pipettes (borosilicate glass with filament, O.D.: 1.5 mm, I.D.: 0.86 mm, 10 cm length), fabricated on a SUTTER P-97 puller with resistance values of ˜5 MΩ (Table 4 ).
T-type currents were reliably obtained by using two voltage protocols: “non-inactivating”, and “inactivation”. In the non-inactivating protocol, the holding potential is set at −110 mV and with a pre-pulse at −100 mV for 1 second prior to the test pulse at −40 mV for 50 ms. In the inactivation protocol, the pre-pulse is at approximately −85 mV for 1 second, which inactivates about ^15% of the T-type channels.
Test compounds were dissolved in external solution, 0.1-0.01% DMSO. After ˜10 min rest, they were applied by gravity close to the cell using a WPI microfil tubing. The “non-inactivated” pre-pulse was used to examine the resting block of a compound. The “inactivated” protocol was employed to study voltage-dependent block. However, the initial data shown below were mainly obtained using the non-inactivated protocol only. IC50 values are shown for various compounds of the invention in Table 5.

[3] = frequency dependent block, pulse frequency 0.2 Hz, read-out: IC50 at 0.2 Hz
[4] = tonic block, low frequency stimulation 0.067 Hz, read-out: IC50 at 0.067 Hz
[5] = −80 mV (inactivation protocol), read-out: IC50 at −80 mV
[6] = −100 mV (non-inactivating protocol), read-out: IC50 at −100 mV

CN(C(=O)CN(c1ccccc1)c1ccccc1)[C@H]1CCN(C(c2ccccc2)c2ccccc2)C1 [Compound P14, (S)-N-(1-Benzhydryl-pyrrolidin-3-yl)-2-diphenylamino-N-methyl-acetamide]
IC50 [1, 3]: 252 nM | IC50 [1, 4]: 366 nM | IC50 [2, 5]: 99 nM | IC50 [2, 6]: 609 nM

CN(C(=O)NC(c1ccccc1)c1ccccc1)[C@H]1CCN(C(c2ccccc2)c2ccccc2)C1 [Compound P16, (S)-3-Benzhydryl-1-(1-benzhydryl-pyrrolidin-3-yl)-1-methyl-urea]
IC50 [1, 3]: 601 nM | IC50 [1, 4]: 1030 nM | IC50 [2, 5]: 926 nM | IC50 [2, 6]: 2200 nM

CN(C(=O)CC(c1ccccc1)c1ccccc1)[C@H]1CCN(C(c2ccccc2)c2ccccc2)C1 [Compound P6, (S)-N-(1-Benzhydryl-pyrrolidin-3-yl)-N-methyl-3,3-diphenyl-propionamide]
IC50 [1, 3]: 365 nM | IC50 [1, 4]: 638 nM | IC50 [2, 5]: 455 nM | IC50 [2, 6]: 1160 nM

CN(C(=O)CC(c1ccccc1)c1ccccc1)[C@@H]1CCN(C(c2ccccc2)c2ccccn2)C1 (stereo partly drawn) [Compound P12, (R)-N-Methyl-3,3-diphenyl-N-[1-(phenyl-pyridin-2-yl-methyl)-pyrrolidin-3-yl]-propionamide]
IC50 [1, 3]: 285 nM | IC50 [1, 4]: 362 nM | IC50 [2, 5]: 335 nM | IC50 [2, 6]: 647 nM

CN(C(=O)CC(c1ccccc1)c1ccccc1)[C@@H]1CCN(C(c2ccccc2)c2ccncc2)C1 (stereo partly drawn) [Compound P10, (R)-N-Methyl-3,3-diphenyl-N-[1-(phenyl-pyridin-4-yl-methyl)-pyrrolidin-3-yl]-propionamide]
IC50 [1, 3]: 520 nM | IC50 [1, 4]: 714 nM | IC50 [2, 5]: 882 nM | IC50 [2, 6]: 3460 nM

CN(CC(=O)N(c1ccccc1)c1ccccc1)[C@H]1CCN(C(c2ccccc2)c2ccccc2)C1 [Compound P15, (S)-2-[(1-Benzhydryl-pyrrolidin-3-yl)-methyl-amino]-N,N-diphenyl-acetamide]
IC50 [1, 3]: 216 nM | IC50 [1, 4]: 287 nM | IC50 [2, 5]: 115 nM | IC50 [2, 6]: 692 nM

CN(C(=O)CC(c1ccccc1)c1ccccc1)[C@H]1CCN(Cc2ccncc2)C1 [Compound P13, (S)-N-Methyl-3,3-diphenyl-N-(1-pyridin-4-ylmethyl-pyrrolidin-3-yl)-propionamide]
IC50 [1, 3]: 471 nM | IC50 [1, 4]: 913 nM | IC50 [2, 5]: 488 nM | IC50 [2, 6]: 5000 nM

CN(C(=O)CC(c1ccccc1)c1ccccc1)[C@@H]1CCN(Cc2cccnc2)C1 [Compound P8, (R)-N-Methyl-3,3-diphenyl-N-(1-pyridin-3-ylmethyl-pyrrolidin-3-yl)-propionamide]
IC50 [1, 3]: 987 nM | IC50 [1, 4]: 3000 nM | IC50 at −80 mV ([2]; −80 mV (inactivation protocol)): No block | IC50 at −100 mV ([2]; −100 mV (non-inactivating protocol)): No block

CN(C(=O)CC(c1ccccc1)c1ccccc1)[C@@H]1CCN(Cc2ccccn2)C1 [Compound P9, (R)-N-Methyl-3,3-diphenyl-N-(1-pyridin-2-ylmethyl-pyrrolidin-3-yl)-propionamide]
IC50 [1, 3]: 617 nM | IC50 [1, 4]: 1300 nM | IC50 [2, 5]: 160 to 2400 nM | IC50 [2, 6]: 150 to 4500 nM

CN(C(=O)CC(c1ccccc1)c1ccccc1)[C@@H]1CCN(C(c2ccccc2)c2cccnc2)C1 (stereo partly drawn) [Compound P11, (R)-N-Methyl-3,3-diphenyl-N-[1-(phenyl-pyridin-3-yl-methyl)-pyrrolidin-3-yl]-propionamide]
IC50 [1, 3]: 302 nM | IC50 [1, 4]: 386 nM | IC50 [2, 5]: 374 nM | IC50 [2, 6]: 1800 nM

CN(C(=O)CC(c1ccccc1)c1ccccc1)[C@@H]1CCN(C(c2ccccc2)c2ccccc2)C1 [Compound P3, (R)-N-(1-Benzhydryl-pyrrolidin-3-yl)-N-methyl-3,3-diphenyl-propionamide]
IC50 [1, 3]: 44 nM | IC50 [1, 4]: 112 nM | IC50 [2, 5]: 364 nM | IC50 [2, 6]: 910 nM

Source: patent US7507760B2, “N-type calcium channel blockers” (Neuromed Pharmaceuticals Ltd., priority 2004, dated 2009)
